Test results published in ChEMBL document CHEMBL3885881, “DrugMatrix”.

Organism: Rattus norvegicus
Assay: DrugMatrix - Regimen: Daily Repeat
Format: toxicity, organism-based, Sprague-Dawley
Parameters: regimen Daily Repeat, gender Male, age 6-8 weeks
Conditions: in vivo, iv, vehicle 100 % SALINE; for ABSOLUTE BASOPHIL / ABSOLUTE EOSINOPHIL / ABSOLUTE LYMPHOCYTE / ABSOLUTE MONOCYTE / ABSOLUTE SEGMENTED NEUTROPHIL / BASOPHIL / EOSINOPHIL / ERYTHROCYTE COUNT / HEMATOCRIT / HEMOGLOBIN / LEUKOCYTE COUNT / LYMPHOCYTE / MEAN CORPUSCULAR HEMOGLOBIN / MEAN CORPUSCULAR HEMOGLOBIN CONCENTRATION / MEAN CORPUSCULAR VOLUME / MONOCYTE / NEUTROPHIL / NUCLEATED RED BLOOD CELLS / PLATELET COUNT: tissue Blood; for ALANINE AMINOTRANSFERASE / ALBUMIN / ALKALINE PHOSPHATASE / ASPARTATE AMINOTRANSFERASE / BLOOD UREA NITROGEN / CARBON DIOXIDE / CHLORIDE / CHOLESTEROL / CREATINE PHOSPHOKINASE / CREATININE / GLUCOSE / LACTATE DEHYDROGENASE / LIPASE / PHOSPHORUS / POTASSIUM / SODIUM / TOTAL BILIRUBIN / TOTAL PROTEIN / URIC ACID: tissue Plasma
[1] = 0.4 mg/kg, 72 h, dose level Low, time 3 day
[2] = 0.4 mg/kg, 120 h, dose level Low, time 5 day
[3] = 4 mg/kg, 72 h, dose level High, time 3 day
[4] = 4 mg/kg, 120 h, dose level High, time 5 day

For `CCCCN1CCCC[C@H]1C(=O)Nc1c(C)cccc1C` [LEVOBUPIVACAINE], the “ABSOLUTE BASOPHIL” value [1] was 0 CELLS/uL, the “ABSOLUTE EOSINOPHIL” value [1] was 254.67 CELLS/uL and the “ABSOLUTE LYMPHOCYTE” value [1] was 15126.67 CELLS/uL. For the same compound, the “ABSOLUTE MONOCYTE” value [1] was 468.33 CELLS/uL, the “ABSOLUTE SEGMENTED NEUTROPHIL” value [1] was 1383.67 CELLS/uL and the BASOPHIL [1] was 0%. The EOSINOPHIL [1] was 1.33%, the “ERYTHROCYTE COUNT” value [1] was 5.99 x10E6/uL and the HEMATOCRIT [1] was 37.7%. For the same compound, the HEMOGLOBIN [1] was 13.83 G/DL, the “LEUKOCYTE COUNT” value [1] was 17.23 x10E3/uL and the LYMPHOCYTE [1] was 88.33%. The “MEAN CORPUSCULAR HEMOGLOBIN” value [1] was 23.17 pg, the “MEAN CORPUSCULAR HEMOGLOBIN CONCENTRATION” value [1] was 36.7 G/DL and the “MEAN CORPUSCULAR VOLUME” value [1] was 63.07 fL. For the same compound, the MONOCYTE [1] was 2.67%, the NEUTROPHIL [1] was 7.67% and the “NUCLEATED RED BLOOD CELLS” value [1] was 0 /100WBC. For the same compound, the “PLATELET COUNT” value [1] was 1404.67 x10E3/uL, the “ALANINE AMINOTRANSFERASE” value [1] was 48.33 u/L and the ALBUMIN [1] was 4.3 G/DL. For the same compound, the “ALKALINE PHOSPHATASE” value [1] was 344.33 u/L, the “ASPARTATE AMINOTRANSFERASE” value [1] was 82.67 u/L and the “BLOOD UREA NITROGEN” value [1] was 17.33 mg/dL. The “CARBON DIOXIDE” value [1] was 22 mmol/L, the CHLORIDE [1] was 106 MEQ/L and the CHOLESTEROL [1] was 74 mg/dL. For the same compound, the “CREATINE PHOSPHOKINASE” value [1] was 243 u/L, the CREATININE [1] was 0.23 mg/dL and the GLUCOSE [1] was 167.67 mg/dL. For the same compound, the “LACTATE DEHYDROGENASE” value [1] was 317 u/L, the LIPASE [1] was 9 u/L and the PHOSPHORUS [1] was 13.87 mg/dL. For the same compound, the POTASSIUM [1] was 6.74 MEQ/L, the SODIUM [1] was 148.9 MEQ/L and the “TOTAL BILIRUBIN” value [1] was 0.2 mg/dL. For the same compound, the “TOTAL PROTEIN” value [1] was 6.3 G/DL, the “URIC ACID” value [1] was 2.5 mg/dL and the “ABSOLUTE BASOPHIL” value [2] was 0 CELLS/uL. For the same compound, the “ABSOLUTE EOSINOPHIL” value [2] was 140.33 CELLS/uL, the “ABSOLUTE LYMPHOCYTE” value [2] was 13101.33 CELLS/uL and the “ABSOLUTE MONOCYTE” value [2] was 294.33 CELLS/uL. The “ABSOLUTE SEGMENTED NEUTROPHIL” value [2] was 1864 CELLS/uL, the BASOPHIL [2] was 0% and the EOSINOPHIL [2] was 1%. For the same compound, the “ERYTHROCYTE COUNT” value [2] was 5.93 x10E6/uL, the HEMATOCRIT [2] was 37% and the HEMOGLOBIN [2] was 14 G/DL. For the same compound, the “LEUKOCYTE COUNT” value [2] was 15.4 x10E3/uL, the LYMPHOCYTE [2] was 85.33% and the “MEAN CORPUSCULAR HEMOGLOBIN” value [2] was 23.6 pg. For the same compound, the “MEAN CORPUSCULAR HEMOGLOBIN CONCENTRATION” value [2] was 37.83 G/DL, the “MEAN CORPUSCULAR VOLUME” value [2] was 62.47 fL and the MONOCYTE [2] was 2%. For the same compound, the NEUTROPHIL [2] was 11.67%, the “NUCLEATED RED BLOOD CELLS” value [2] was 0.33 /100WBC and the “PLATELET COUNT” value [2] was 1119 x10E3/uL. The “ALANINE AMINOTRANSFERASE” value [2] was 67.67 u/L, the ALBUMIN [2] was 4.13 G/DL and the “ALKALINE PHOSPHATASE” value [2] was 394 u/L. For the same compound, the “ASPARTATE AMINOTRANSFERASE” value [2] was 122.67 u/L, the “BLOOD UREA NITROGEN” value [2] was 20 mg/dL and the “CARBON DIOXIDE” value [2] was 24.67 mmol/L. For the same compound, the CHLORIDE [2] was 107.33 MEQ/L, the CHOLESTEROL [2] was 54.33 mg/dL and the “CREATINE PHOSPHOKINASE” value [2] was 430.33 u/L. The CREATININE [2] was 0.2 mg/dL, the GLUCOSE [2] was 154.33 mg/dL and the “LACTATE DEHYDROGENASE” value [2] was 798.67 u/L. The LIPASE [2] was 8.67 u/L, the PHOSPHORUS [2] was 13.03 mg/dL and the POTASSIUM [2] was 5.58 MEQ/L. The SODIUM [2] was 148.47 MEQ/L, the “TOTAL BILIRUBIN” value [2] was 0.1 mg/dL and the “TOTAL PROTEIN” value [2] was 6.2 G/DL. For the same compound, the “URIC ACID” value [2] was 1.57 mg/dL, the “ABSOLUTE BASOPHIL” value [3] was 0 CELLS/uL and the “ABSOLUTE EOSINOPHIL” value [3] was 0 CELLS/uL. The “ABSOLUTE LYMPHOCYTE” value [3] was 11600.33 CELLS/uL, the “ABSOLUTE MONOCYTE” value [3] was 405 CELLS/uL and the “ABSOLUTE SEGMENTED NEUTROPHIL” value [3] was 1828 CELLS/uL. The BASOPHIL [3] was 0%, the EOSINOPHIL [3] was 0% and the “ERYTHROCYTE COUNT” value [3] was 5.58 x10E6/uL. For the same compound, the HEMATOCRIT [3] was 35.27%, the HEMOGLOBIN [3] was 13.37 G/DL and the “LEUKOCYTE COUNT” value [3] was 13.83 x10E3/uL. The LYMPHOCYTE [3] was 83.67%, the “MEAN CORPUSCULAR HEMOGLOBIN” value [3] was 23.93 pg and the “MEAN CORPUSCULAR HEMOGLOBIN CONCENTRATION” value [3] was 37.9 G/DL. For the same compound, the “MEAN CORPUSCULAR VOLUME” value [3] was 63.2 fL, the MONOCYTE [3] was 3% and the NEUTROPHIL [3] was 13.33%. The “NUCLEATED RED BLOOD CELLS” value [3] was 0.33 /100WBC, the “PLATELET COUNT” value [3] was 1307 x10E3/uL and the “ALANINE AMINOTRANSFERASE” value [3] was 41.33 u/L. For the same compound, the ALBUMIN [3] was 4.27 G/DL, the “ALKALINE PHOSPHATASE” value [3] was 430.67 u/L and the “ASPARTATE AMINOTRANSFERASE” value [3] was 83.33 u/L. For the same compound, the “BLOOD UREA NITROGEN” value [3] was 15.67 mg/dL, the “CARBON DIOXIDE” value [3] was 24.67 mmol/L and the CHLORIDE [3] was 105.67 MEQ/L. The CHOLESTEROL [3] was 62 mg/dL, the “CREATINE PHOSPHOKINASE” value [3] was 275.67 u/L and the CREATININE [3] was 0.23 mg/dL. The GLUCOSE [3] was 152 mg/dL, the “LACTATE DEHYDROGENASE” value [3] was 383 u/L and the LIPASE [3] was 8.67 u/L. It also gave a PHOSPHORUS [3] of 13.3 mg/dL, a POTASSIUM [3] of 6.04 MEQ/L and an SODIUM [3] of 146.8 MEQ/L. For the same compound, the “TOTAL BILIRUBIN” value [3] was 0.2 mg/dL, the “TOTAL PROTEIN” value [3] was 5.77 G/DL and the “URIC ACID” value [3] was 1.43 mg/dL. For the same compound, the “ABSOLUTE BASOPHIL” value [4] was 0 CELLS/uL, the “ABSOLUTE EOSINOPHIL” value [4] was 0 CELLS/uL and the “ABSOLUTE LYMPHOCYTE” value [4] was 14035 CELLS/uL. The “ABSOLUTE MONOCYTE” value [4] was 328 CELLS/uL, the “ABSOLUTE SEGMENTED NEUTROPHIL” value [4] was 2037 CELLS/uL and the BASOPHIL [4] was 0%. For the same compound, the EOSINOPHIL [4] was 0%, the “ERYTHROCYTE COUNT” value [4] was 5.6 x10E6/uL and the HEMATOCRIT [4] was 34.2%. The HEMOGLOBIN [4] was 13.05 G/DL, the “LEUKOCYTE COUNT” value [4] was 16.4 x10E3/uL and the LYMPHOCYTE [4] was 85.5%. For the same compound, the “MEAN CORPUSCULAR HEMOGLOBIN” value [4] was 23.3 pg, the “MEAN CORPUSCULAR HEMOGLOBIN CONCENTRATION” value [4] was 38.15 G/DL and the “MEAN CORPUSCULAR VOLUME” value [4] was 61.1 fL. For the same compound, the MONOCYTE [4] was 2%, the NEUTROPHIL [4] was 12.5% and the “NUCLEATED RED BLOOD CELLS” value [4] was 0.5 /100WBC. The “PLATELET COUNT” value [4] was 1167 x10E3/uL, the “ALANINE AMINOTRANSFERASE” value [4] was 38 u/L and the ALBUMIN [4] was 4.35 G/DL. For the same compound, the “ALKALINE PHOSPHATASE” value [4] was 311 u/L, the “ASPARTATE AMINOTRANSFERASE” value [4] was 72.5 u/L and the “BLOOD UREA NITROGEN” value [4] was 18 mg/dL. The “CARBON DIOXIDE” value [4] was 26.5 mmol/L, the CHLORIDE [4] was 103 MEQ/L and the CHOLESTEROL [4] was 57.5 mg/dL. For the same compound, the “CREATINE PHOSPHOKINASE” value [4] was 325.5 u/L, the CREATININE [4] was 0.17 mg/dL and the GLUCOSE [4] was 150.5 mg/dL. For the same compound, the “LACTATE DEHYDROGENASE” value [4] was 321.5 u/L, the LIPASE [4] was 8 u/L and the PHOSPHORUS [4] was 13.4 mg/dL. The POTASSIUM [4] was 6.04 MEQ/L, the SODIUM [4] was 146.65 MEQ/L and the “TOTAL BILIRUBIN” value [4] was 0.1 mg/dL. The “TOTAL PROTEIN” value [4] was 6.05 G/DL and the “URIC ACID” value [4] was 1.5 mg/dL.
